# Source: patent US20030216319A1, “Specific autoimmune reactions against isomerised/optically inverted epitopes: application for treatment of autoimmune diseases” (priority 2000, published 2003)
# What was measured:
# [1] = tested on: immunoaffinity purified RA auto-antibodies; assay: Immuno-blotting of cellulose-bound spot peptides with immunoaffinity purified RA auto-antibodies (Example 5); format: binding, human; conditions: IgM RF eluate 1 μg/mL
# Description: 1. IgG is coupled to CNBr activated Sepharose using the manufacturers instructions (Pharmacia, Upsala, Sweden).
# 2. The IgG Sepharose is packed in a suitable column (i.e. a disposable DG10 column, BioRad laboratories, Richmond, Calif.). The column is washed with at least 10 column volumes PBS and with 10 column volumes 0.1 M sodium acetate, 0.15 M sodium chloride pH 3.5 and finally equilibrated in PBS.
# 3. Serum from RA patients is diluted 10 times in PBS and loaded on the column. The column is washed with PBS until the absorbency (OD 280 nm) reaches base-line.
# 4. Bound RF's are eluted with 0.1 M sodium acetate, 0.15 M sodium chloride pH 3.5.
# 5. IgM is separated from IgG and IgA by gel-filtration on a Sephadex G-200 column in 0.1 M sodium acetate, 0.15 M sodium chloride pH 3.5.
# 6. Eluted IgM is diluted in PBS-BT to 1 μg/mL and assayed as described below.
# Seven amino-acid peptides extending over the Asn-315 residue were synthesised by spot synthesis using Whatman 540 paper (Maidstone, U.K.), using the previously described procedures (Frank, 1992, Kramer et al 1994). The peptides were automatically prepared using a spot synthesis method (Abimed, Langenfeld, FRG). The following peptides were synthesised, covalently attached via the carboxy-terminus:
# The cellulose membrane containing these peptides was incubated with the immunoaffinity purified RA auto-antibodies purified as described above. […]
# [2] = tested on: human immunoglobulin; assay: Homogeneous RIA with 125I-BSA-BS3-Pro-Ser-Glu-γ-Gly-Lys-Gly-Arg-Gly in MS and control sera (Example 9); format: binding
# Description: For this purpose the MBP derived octapeptide Pro-Ser-Glu-γ-Gly-Lys-Gly-Arg-Gly (γL) was manufactured synthetically using standard FMOC chemistry. The peptide was conjugated to bovine serum albumin (BSA) by Bis[sulfosuccinimidyl]suberate (BS^3) according to the manufacturers instructions (Pierce) and iodinated with ^125I using the chloramine T protocol as described in Example 4.
# Serum from 9 MS-patients and 8 healthy persons are reacted overnight with ^125I-BSA-BS^3-Pro-Ser-Glu-γ-Gly-Lys-Gly-Arg-Gly followed by precipitation of immune complexes with protein A Sepharose. Serum samples are diluted 1:200 in IMP buffer. The ^125I BSA-BS^3-Pro-Ser-Glu-γ-Gly-Lys-Gly-Arg-Gly tracer is diluted in IMP buffer (to an activity of 100000 CPM/25 μl). Seventy-five μl of diluted serum sample is mixed with 25 μl tracer and 25 μl of either IMP buffer or free (unconjugated/unlabelled) Pro-Ser-Glu-γ-Gly-Lys-Gly-Arg-Gly peptide (in a concentration of […] in IMP buffer) is added to this mixture. This mixture is incubated overnight at 4° C. Protein. A Sepharose (PAS) 20 μl/sample vial is weighed out and washed 3 times with 10 ml IMP washing buffer, and transferred to eppendorf 1.5 ml tubes using a repeater pipette. The PAS is sedimented by centrifugation at 2000 RPM 2 min., and the supernatant is aspirated using a suction device (or a pipette). […]
Substance,reactivity of purified RA auto-antibodies towards cellulose-bound peptide [1],"inhibition of binding of tracer conjugate to human immunoglobulin by free peptide ([2]; 25 μl free peptide, 10 μl/mL in IMP buffer)","% inhibition of immunoglobulin binding by free peptide, MS sera compared to control sera ([2]; p=0.008, two-tailed non-parametric t-test)"
His-Gln-Asp-Trp-Leu-Asp-β-Gly... [peptide IV],strong reactivity,–,–
Pro-Ser-Glu-γ-Gly-Lys-Gly-Arg-Gly,–,could be specifically inhibited,significantly higher
